Measurements published in patent publication US20090209019A1, “Bioartificial Renal Tubule” (TOKAI UNIVERSITY EDUCATIONAL SYSTEM, priority 2006, published 2009).
Where two headings read alike, the source gives them in different places. Marks after values point to notes of the source that are not given here.

Experiments:
[1] = test system: Madin-Darby canine kidney (MDCK) cells; conditions: cells lacking contact inhibition by action of HGF; cited from earlier work
LLC-PK1 cells [2] = conditions: 1% DMSO, DMEM-HG, 0 day to third day
Protocol: On each 6-well plate, 5×10^5 LLC-PK1 cells were seeded. […] Furthermore, two groups of the cells cultured in (4) a DMEM-HG medium and (5) a DMEM-HG medium containing 1% DMSO were checked. The cells on 0 day, the first day, the second day, and the third day after seeding were colored with trypan blue and then measured for number.

MEN-1 and MEK-2 = conditions: cited from earlier work
LLC-PK1 cells [3] = conditions: 50 μM U0126 and 1% DMSO in DMEM-HG, 0 day to sixth day
Protocol: On each transwell filter unit, 2×10^6 Lewis-lung cancer porcine kidney (LLC-PK1) cells, which were cryopreserved porcine proximal renal tubular epithelial cell lines, were seeded. […] The LLC-PK1 cells on 0 day, the first day, the second day, the third day, and the sixth day after seeding were colored with trypan blue and then measured for number for each group. The LLC-PK1 cells were gently washed with a sterilized PBS solution containing no magnesium or calcium and were then trypsin-treated with 1 ml of a trypsin-EDTA solution at 37° C. for 15 minutes. The treated cells (1 ml) were added to 4 ml of DMEM, were colored with trypan blue, and were then measured for number with a hemocytometer. Measurement was performed three times for each group.

AP-1 transactivation = conditions: cited from earlier work
LLC-PK1 cells [4] = test system: LLC-PK1 cells
Protocol: In lumens of hollow fibers made of an ethylene-vinyl alcohol (EVAL) copolymer, which forms membranes placed in mini-modules (a membrane area of 65 cm^2), 2×10^8 […] (LLC-PK1) cells, which were porcine proximal renal tubular epithelial cell lines, were seeded. The cells were cultured in such a manner that a DMEM-HG medium was circulated inside and outside the hollow fibers at a rate of 0.25 ml/min. In this operation, the transmembrane pressure was maintained at zero. […] The leakage of urea nitrogen, the leakage of creatinine, the amount of reabsorbed glucose, and the amount of reabsorbed Na^+ were measured for 24 hours.
Method of measuring absorption and leakage: the absorption and leakage are calculated using the following formula:
Absorption rate (leaking rate)=(C0×V0−CI×(VI−VR))/C2V2
wherein C0 represents the concentration of a substance in a discharged external solution, V0 represents the volume of the discharged external solution, CI represents the concentration of the substance in a fed external solution, VI represents the volume of the fed external solution, VR represents the volume of the external solution remaining outside the hollow fibers at the end of an experiment, C2 represents the concentration of the substance in a fed internal solution, and V2 represents the volume of the fed internal solution.

LLC-PK1 cells [5] = conditions: DMEM medium containing 50 μg/ml U0126 for two weeks
Text: In both groups, the medium was circulated outside the hollow fibers of the module in a closed system. […] On the fourth day after culture, three of the modules of each group were fixed with glutaraldehyde and were then observed in vertical cross section by scanning electron microscopy (SEM).

[6] = 50 μM U0126, days 3-4, mean ± SEM, n = 4

Protocol for ERK1/2: In each of 6-well plates, 5×10^5 LLC-PK1 cells were seeded. The cells were divided into three groups on the following day (0 day). […] Then the media (D) and (U) were replaced with a DMEM-HG medium. The cells of each group were further cultured for three days. The cells were subjected to Western blot analysis for ERK1/2 on 0 day, the first day, the second day, the third day, and the sixth day.
The cultured LLC-PK1 cells were used in the form of a cytolytic solution for Western blot analysis. The sampled cells of each group were rinsed with ice-chilled PBS and were then centrifuged at 4° C. for five minutes at 1500 rpm. The centrifugate was collected and then maintained at −80° C.
Proteins were taken from 50 μL of each of ice-chilled cytolytic solutions containing 20 mM Tris-HCl (pH 7.5), 150 mM NaCl, 1 mM Na2EDTA, 1 mM EGTA, 1% Triton, 2.5 mM sodium pyrophosphate, 1 mM β-glycerophosphate, 1 mM Na3VO4 (sodium orthovanadate), and 1 μg/ml leupeptin. The proteins were centrifuged at 4° C. for 15 minutes at 15000×g, whereby soluble proteins were extracted. The protein concentration of each cytolytic solution was measured with a protein assay kit (Protein Assay Rapid Kit; Wako, Osaka, Japan). […] Proteins (20 μg) in each LLC-PK1 cytolytic solution were analyzed with SDS-PAGE (polyacrylamide gel electrophoresis) using a 12.5% polyacrylamide gel (e-PAGEL; ATTO, Tokyo, Japan). […]

Row | SMILES | contact inhibition of MDCK cells [1] | change in number of LLC-PK1 cells (LLC-PK1 cells [2]; 10 μM) | change in number of LLC-PK1 cells (LLC-PK1 cells [2]; 30 μM) | change in number of LLC-PK1 cells (LLC-PK1 cells [2]; 50 μM) | inhibition of MEK-1 and MEK-2 (MEN-1 and MEK-2) | change in number of LLC-PK1 cells (LLC-PK1 cells [3]) | AP-1 transactivation (AP-1 transactivation) | amount of reabsorbed Na+ compared with control group (LLC-PK1 cells [4]; 50 μM U0126) | amount of reabsorbed glucose compared with control group (LLC-PK1 cells [4]; 50 μM U0126) | leakage of creatinine (Cr) compared with control group (LLC-PK1 cells [4]; 50 μM U0126) | leakage of urea nitrogen (UN) compared with control group (LLC-PK1 cells [4]; 50 μM U0126) | Leakage Cr (LLC-PK1 cells [4]; [6]) | Leakage UN (LLC-PK1 cells [4]; [6]) | Reabsorption Glucose (LLC-PK1 cells [4]; [6]) | Reabsorption Na+ (LLC-PK1 cells [4]; [6]) | maintenance of confluent monolayer in hollow fibers (SEM), FIG. 5 legend (LLC-PK1 cells [5]) | activated ERK1/2 (ERK1/2; 50 μM U0126 and 1% DMSO, first, second and third day) | activated ERK1/2 after replacing the medium with U0126-free DMEM-HG (ERK1/2; sixth day, three days after removal of U0126)
1 | COc1cccc(-c2cc(=O)c3ccccc3o2)c1N [PD-98059] | restoring the contact inhibition |  |  |  |  |  |  |  |  |  |  |  |  |  |  |  |  | 
2 | N#CC(=C(N)Sc1ccccc1N)C(C#N)=C(N)Sc1ccccc1N [U0126, 1,4-diamino-2,3-dicyano-1,4-bis[2-aminophenylthio]butadiene] | restoring the contact inhibition | not sufficiently prevented from increasing in number | clearly prevented from proliferating | clearly prevented from proliferating | direct inhibition | prevented from significantly increasing in number | suppressor of AP-1 transactivation | significantly greater | greater than that in the control group, though there is no significant difference | less than that in the control group, though there is no significant difference | significantly less | 3.3 ± 0.5% | 3.6 ± 0.7^b % | 63.9 ± 19.7 mg/day | 1.26 ± 0.10^b mEq/day | confluent monolayers are substantially maintained | suppressed | Activated ERK1/2 is expressed
